In patent US12583826B2, “[(1,5-diphenyl-1H-1,2,4-triazol-3-yl)oxy]acetic acid derivatives and salts thereof, crop protection compositions comprising them, methods for producing them and use thereof as safeners” (Bayer Aktiengesellschaft, priority 2019, dated 2026):

How the values were obtained:
[1] = tested on: summer barley (HORVS; cv. Montoya); test: Relative action (efficacy code): reduction of damage by mesosulfuron-methyl on summer barley; assay type: in vivo; design: key: 0: no reduction in damage (appearance corresponding to the herbicide control); 1: slight reduction in damage; 2: distinct reduction in damage; 3: significant reduction in damage; 4: complete reduction in damage (appearance corresponding to the untreated control); conditions: then mesosulfuron-methyl 40-60 g/ha, visual, 9-13 days after application
Method: 2.4 Relative Action of Selected Compounds of the Invention Using the Example of Reduction of Damage by Mesosulfuron-Methyl on Summer Barley (HORVS) The seeds of the crop plants to be treated are laid out in sandy loam in plastic pots (diameter ˜4 cm), covered with soil and grown in a greenhouse under good conditions for germination and growth. The trial plants were treated at the early leaf stage (BBCH10—BBCH12). In the course of this, the inventive compounds of the general formula (I) formulated in the form of wettable powders (WP) were sprayed onto the above-ground parts of the plants as an aqueous suspension with a water application rate corresponding to 800 l/ha with addition of wetting agent (e.g. 0.2% Genapol-LRO or 0.2% Mero) in the specified dose. This was followed by the application of the herbicide. For this purpose, mesosulfuron-methyl, formulated in the form of water-dispersible granules (WG), was sprayed onto the above-ground parts of the plants in the form of an aqueous dispersion with a water application rate corresponding to 800 l/ha with addition of wetting agent (e.g. 0.2% Genapol-LRC) or 1 l/ha Biopower) in a dose of 40-60 g/ha. The dose of the herbicide was chosen here such that it causes visually apparent damage (min. 30%, max. 75%) compared to untreated crop plants at the evaluation time on a control group of crop plants without safener treatment that were included in the same trial. After application, the plants were cultivated under good growth conditions in a greenhouse. 9-13 days after application, the efficacy of the test compounds was assessed visually. For this purpose, the appearance of the plants treated with the test compound and herbicide was compared to the corresponding herbicide controls (without safener; with clearly visible damage) and the untreated controls (without damage). The damage-reducing effect of the test compounds was expressed here separately for 2 repeats in graded efficacy codes according to the following scheme: • 0: no reduction in damage (appearance corresponding to the herbicide control) • 1: slight reduction in damage • 2: distinct reduction in damage • 3: significant reduction in damage • 4: complete reduction in damage (appearance corresponding to the untreated control) The trials show clear efficacy of the substances of the invention with regard to the reduction in damage to the summer barley crop plant (HORVS; cv. Montoya) caused by the herbicide mesosulfuron-methyl: […]

[2] = tested on: summer wheat (TRZAS; cv. Triso); test: Relative action (efficacy code): reduction of damage by mesosulfuron-methyl on summer wheat; assay type: in vivo; design: key: 0: no reduction in damage (appearance corresponding to the herbicide control); 1: slight reduction in damage; 2: distinct reduction in damage; 3: significant reduction in damage; 4: complete reduction in damage (appearance corresponding to the untreated control); conditions: then mesosulfuron-methyl 40-60 g/ha, visual, 9-13 days after application
Method: 2.3 Relative Action of Selected Compounds of the Invention Using the Example of Reduction of Damage by Mesosulfuron-Methyl on Summer Wheat (TRZAS) The seeds of the crop plants to be treated are laid out in sandy loam in plastic pots (diameter ˜4 cm), covered with soil and grown in a greenhouse under good conditions for germination and growth. The trial plants were treated at the early leaf stage (BBCH10—BBCH12). In the course of this, the inventive compounds of the general formula (I) formulated in the form of wettable powders (WP) were sprayed onto the above-ground parts of the plants as an aqueous suspension with a water application rate corresponding to 800 l/ha with addition of wetting agent (e.g. 0.2% Genapol-LRO or 0.2% Mero) in the specified dose. This was followed by the application of the herbicide. For this purpose, mesosulfuron-methyl, formulated in the form of water-dispersible granules (WG), was sprayed onto the above-ground parts of the plants in the form of an aqueous dispersion with a water application rate corresponding to 800 l/ha with addition of wetting agent (e.g. 0.2% Genapol-LRO or 1 l/ha Biopower) in a dose of 40-60 g/ha. The dose of the herbicide was chosen here such that it causes visually apparent damage (min. 30%, max. 75%) compared to untreated crop plants at the evaluation time on a control group of crop plants without safener treatment that were included in the same trial. After application, the plants were cultivated under good growth conditions in a greenhouse. 9-13 days after application, the efficacy of the test compounds was assessed visually. For this purpose, the appearance of the plants treated with the test compound and herbicide was compared to the corresponding herbicide controls (without safener; with clearly visible damage) and the untreated controls (without damage). The damage-reducing effect of the test compounds was expressed here in graded efficacy codes according to the following scheme: • 0: no reduction in damage (appearance corresponding to the herbicide control) • 1: slight reduction in damage • 2: distinct reduction in damage • 3: significant reduction in damage • 4: complete reduction in damage (appearance corresponding to the untreated control) The trials show clear efficacy of the substances of the invention with regard to the reduction in damage to the summer wheat crop plant (TRZAS; cv. Triso) caused by the herbicide mesosulfuron-methyl: […]

[3] = safener dose 500 (unit not given)
[4] = safener dose 100 (unit not given)

Row | Compound | Efficacy of the safener (efficacy code) ([1]; safener 500 g/ha) | Efficacy of the safener (efficacy code) [2, 3] | Efficacy of the safener (efficacy code) ([1]; safener 100 g/ha) | Efficacy of the safener (efficacy code) [2, 4]
1 | O=C(O)COc1nc(-c2ccc(Cl)cc2F)n(-c2c(F)cccc2F)n1 [I.48-43] | 2 | 2 | – | –
2 | COC(=O)COc1nc(-c2ccc(F)cc2F)n(-c2ccc(F)cc2Cl)n1 [I.40-48] | – | – | 2 | 2
3 | COCCOC(=O)COc1nc(-c2ccc(F)cc2F)n(-c2ccc(F)cc2Cl)n1 [I.67-48] | – | – | 2 | 2
4 | COC(=O)CCOC(=O)COc1nc(-c2ccc(Cl)cc2Cl)n(-c2ccc(Cl)cc2F)n1 [I.61-49, Methyl 3-(2-{[1-(4-chloro-2-fluorophenyl)-5-(2,4-dichlorophenyl)-1H-1,2,4-triazol-3-yl]oxy}acetoxy)propanoate] | – | – | 2 | 2
5 | COC(=O)COc1nc(-c2ccc(F)cc2F)n(-c2ccc(Cl)cc2)n1 [I.40-7, Methyl {[1-(4-chlorophenyl)-5-(2,4-difluorophenyl)-1H-1,2,4-triazol-3-yl]oxy}acetate] | 4 | 4 | 2 | 4
6 | O=C(O)COc1nc(-c2ccc(F)cc2F)n(-c2c(F)cccc2F)n1 [I.42-43] | 2 | 2 | 2 | 2
7 | O=C(O)COc1nc(-c2ccc(F)cc2F)n(-c2ccc(Cl)cc2F)n1 [I.42-49] | 3 | 2 | 2 | 2
8 | CCOC(=O)CCOC(=O)COc1nc(-c2ccc(F)cc2F)n(-c2ccc(Cl)cc2F)n1 [I.69-49] | – | – | 2 | 2
9 | O=C(O)COc1nc(-c2c(F)cccc2F)n(-c2c(F)cccc2F)n1 [I.57-43] | 2 | 2 | – | –
